In patent US20220226357A1, “METHODS FOR TREATING NEURODEGENERATIVE DISORDERS” (THOMAS JEFFERSON UNIVERSITY, priority 2019, published 2022):

System: AAV-A53T α-synuclein rat model
Test: Cylinder test of spontaneous forelimb use
Assay type: in vivo
Description: Institutional Animal Care and Use Committee and conducted in accordance with the National Institutes of Health Guide for the Care and Use of Laboratory Animals. Adult male Sprague-Dawley rats (Envigo), 250 to 300 g at the time of surgery, were housed three per cage with ad libitum access to food and water during a 12-hour light/dark cycle. All surgeries were performed under general anesthesia using a mixture of ketamine (100 mg/kg, i.p.) and xylazine (10 mg/kg, i.p.). Once animals were anesthetized, the head was shaved and surgically prepped with Betadine solution and alcohol before being placed in a Kopf stereotaxic frame with the incisor bar set at approximately 3.5 mm below horizontal zero to achieve a flat skull position. The skin on the top of the skull was cut along the midline and retracted. […] Following a 5 minute wait period after completion of the injection, the needle was slowly withdrawn, the skin wound was closed, and post-surgery analgesia (meloxicam 1 mg/kg) was administered. Some rats were randomly assigned to receive daily GM1 ganglioside (porcine brain derived GM1, 30 mg/kg, i.p., Qilu Pharmaceutical Co., Ltd.) or similar volume saline injections beginning 24 hours after AAV-A53T-synuclein surgery and lasting for 6 weeks (early start group). Other animals were randomly assigned to receive daily GM1 ganglioside (porcine brain derived GM1, 30 mg/kg, i.p., Qilu Pharmaceutical Co.) or similar volume saline injections beginning 3 weeks after AAV-A53T-synuclein surgery and lasting for 5 weeks (delayed start group). […] At the conclusion of the study, animals were euthanized, fresh brains were rapidly removed, and two to three striatal samples from both sides were dissected and immediately frozen for later analyses. The remainder of the brain (including the striatum beginning at the level of the decussation of the anterior commissure) was submersion fixed in 4% paraformaldehyde.
Forelimb use during explorative activity was analyzed using the cylinder test. The test apparatus consisted of a clear Plexiglass cylinder of approximately 33 cm diameter and 50 cm height placed in a dimly lit room in front of a mirror in order to visualize limb use from all angles. Each session was videotaped for later analysis by an observer blind to the animal's experimental group. The paw contralateral to the side of the AAV-A53T-α-synuclein injection was marked prior to the start of each test session to definitively determine laterality on videotapes. The test was performed in the late afternoon prior to the onset of the dark cycle. At each test session, the animal was gently placed in the cylinder and movements were videotaped for 10 minutes. Forelimb use was assessed by scoring weight-bearing contacts on the cylinder wall with the ipsilateral, contralateral (relative to the AAV-A53T-α-synuclein-injected side), and both paws. Twenty observations of the paw placements on the cylinder wall were scored. Limb placement on the wall was scored only if it occurred after the animal returned to a resting position and reared again to touch the cylinder wall. Percent ipsilateral (ipsi) and contralateral (contra) paw touches were calculated as [(ipsi+1/2 both)/total #observations]*100 and [(contra+1/2 both)/total #observations]*100, respectively. The cylinder test was performed prior to surgery (baseline) and at 3 and 6 weeks after surgery for the immediate start GM1 groups and at 3 and 8 weeks after surgery for the delayed start GM1 groups.

## GM1 ganglioside
Delayed start GM1 30 mg/kg/day i.p. from week 3 for 5 weeks, week 8
  percent ipsilateral forelimb use: 61.5±2.7%
Delayed start GM1 group, baseline (prior to surgery and GM1)
  percent ipsilateral limb use: 50.0±2.0%
Delayed start GM1 group, week 3, just prior to receiving GM1
  percent ipsilateral forelimb use: 74.9±2.8%
Early start GM1 30 mg/kg/day i.p. from 24 h after AAV-A53T, 3 weeks, mean±SEM
  percent ipsilateral limb use: 67.1±3.7%
Early start GM1 30 mg/kg/day i.p. from 24 h after AAV-A53T, 6 weeks, mean±SEM
  percent ipsilateral limb use: 56.0±2.5%
Early start GM1 group, baseline (prior to surgery and GM1), mean±SEM
  percent ipsilateral limb use: 50.1±1.8%
